Test results published in PMC9030691, “Toxicokinetics of β-Amanitin in Mice and In Vitro Drug–Drug Interaction Potential” (Pharmaceutics, 2022).
pIC50: −log10 of the molar value. Read-outs that look alike come from different tables or passages of the source.

Columns and labels:
in vivo = type: in vivo; settings: male ICR mice, n = 4; for AUClast, brain: brain homogenate; for AUClast, heart: heart homogenate; for AUClast, kidney: kidney homogenate; for AUClast, liver: liver homogenate; for AUClast, lung: lung homogenate; for AUClast, spleen: spleen homogenate; for AUC(0-t): mouse, in vivo, plasma, read-out: AUClast, plasma (converted)
Experimental: Male mice fasted for 12 h with free access to water. Blood, brain, liver, kidney, heart, lung, stomach, intestine, and spleen were collected at 0.5, 1, 2, and 4 h after iv (0.8 mg/kg) injection or at 0.5, 1, 3, and 6 h after oral (10 mg/kg) administration of β-amanitin (n = 4 at each time point). Plasma samples (5 μL each) were harvested by centrifugation at 13,000× g for 3 min at 4 °C. Tissue samples were washed with cold normal saline, weighed, and stored at −80 °C until analysis.
Concentrations of β-amanitin in biological samples were evaluated following our previous methodology. The standard calibration curves for β-amanitin in mouse plasma ranged from 0.5 to 500 ng/mL and were linear, with a correlation coefficient of 0.9952. The inter- and intra-day accuracy and precision fell within the acceptance criteria (3.1–14.6% of coefficients of variation (CVs) and 92.5–115.0% of accuracy). The extraction recovery and matrix effect of this analytical method were 82.8–88.9% and 93.0–98.6%.
Each tissue and feces sample was homogenized in water (1:3, w/v). In total, 50 μL aliquots of urine, tissue homogenates, or feces homogenates were mixed with 150 μL of 4′-hydroxydiclofenac solution (IS, 5 ng/mL in methanol). The other steps were as described for plasma sample preparation.
Toxicokinetics of β-Amanitin in Mice and In Vitro Drug–Drug
Young Yoon Bang, Im-Sook Song, Min Seo Lee, Chang Ho Lim, Yong-Yeon Cho, Joo Young Lee, Han Chang Kang […]
1. Liquid chromatography-high resolution mass spectrometry (LC-HRMS) of β-amani-tin in various tissue samples
Blood, brain, liver, kidney, heart, lung, stomach, intestine, and spleen tissues were collected, washed with cold normal saline, and weighted. Tissue samples were homoge-nized in water (1:3, w/v) and 50 μL aliquots of tissue homogenates were mixed with 150 μL of 4’-hydroxydiclofenac solution (IS, 5 ng/mL in methanol) and vortexed for 2 min. The mixture was centrifuged at 13,000 rpm at 4 °C for 5 min, and the supernatant was then transferred to an autosampler vial. An aliquot (5 μL) was injected into the LC-HRMS sys-tem for analysis, according to the previous methods. The standard calibration curves for β-amanitin in various tissue homogenates were prepared individually using the re-spective blank tissue homogenates. Each calibration standard curve was validated using the quality control (QC) samples.
As results, the standard calibration curves for β-amanitin in various tissue homoge- […]
the quality control samples prepared in various tissue homogenates were all in acceptance criteria (Supplementary Table 1).
Table S1. Concentration ranges, representative regression equation, and correlation coefficients of the calibration curves and precision (coefficient of variation, CV) and accuracy values for β-amanitin […]
Tissue Concentration Representative regression Correlation range (ng/g tissue) equation coefficient QC (ng/g tissue) Intra-day (n = 5) Accuracy (%) CV (%) […]

CYP2A6 = biological target: T1, CYP2A6 (Homo sapiens, UniProt P11509); experiment: CYP2A6 inhibition in human liver microsomes; type: in vitro ADME; settings: ultrapooled human liver microsomes 0.2 mg/mL, 2.5 μM coumarin, β-amanitin 0.1–100 μM, pH 7.4, 37 °C, 15 min, LC-MS/MS, n = 3, read-out: IC50, CYP2A6 coumarin 7-hydroxylase
T1 construct: from tissue; host or cells: ultrapooled human liver microsomes
Experimental: (§1) β-amanitin inhibition (IC50 values) of CYP1A2, CYP2A6, CYP2B6, CYP2C8, CYP2C9, CYP2C19, CYP2D6, and CYP3A4 enzyme activities in HLMs were evaluated using LC-MS/MS and CYP substrates as previously described. Each incubation mixture was made up to a volume of 100 μL including HLMs (0.2 mg/mL), 50 mM potassium phosphate buffer (pH 7.4), 1.0 mM NADPH, 10 mM magnesium chloride, various concentrations of β-amanitin (0.1–100 μM), a cocktail of seven CYP probe substrates (50 μM phenacetin for CYP1A2, 2.5 μM coumarin for CYP2A6, 2 μM amodiaquine for CYP2C8, 10 μM diclofenac for CYP2C9, 100 μM [S]-mephenytoin for CYP2C19, 5 μM bufuralol for CYP2D6, and 2.5 μM midazolam for CYP3A4 in acetonitrile), or 50 μM bupropion for CYP2B6. The reactions were initiated with NADPH followed by incubation in a shaking water bath at 37 °C for 15 min with or without 30 min preincubation with NADPH. Reactions were stopped with 50 μL of ice-cold methanol containing ^13C2, ^15N-acetaminophen and d9-1′-hydroxybufuralol (ISs). Incubation mixtures were centrifuged at 13,000× g for 8 min at 4 °C. An aliquot (5 μL) of the supernatant from the reaction mixture was analyzed by the previous LC-MS/MS method.

CYP2C9 = biological target: T2, CYP2C9 (Homo sapiens, UniProt P11712); experiment: CYP2C9 inhibition in human liver microsomes; type: in vitro ADME; settings: ultrapooled human liver microsomes 0.2 mg/mL, 10 μM diclofenac, β-amanitin 0.1–100 μM, pH 7.4, 37 °C, 15 min, LC-MS/MS, n = 3, read-out: IC50, CYP2C9 diclofenac 4′-hydroxylase
T2 construct: from tissue; host or cells: ultrapooled human liver microsomes
Experimental: as §1

CYP3A4 = biological target: T3, CYP3A4 (Homo sapiens, UniProt P08684); experiment: CYP3A4 inhibition in human liver microsomes; type: in vitro ADME; settings: ultrapooled human liver microsomes 0.2 mg/mL, 2.5 μM midazolam, β-amanitin 0.1–100 μM, pH 7.4, 37 °C, 15 min, LC-MS/MS, n = 3, read-out: IC50, CYP3A4 midazolam 1′-hydroxylase
T3 construct: from tissue; host or cells: ultrapooled human liver microsomes
Experimental: as §1

[1] = iv 0.8 mg/kg, sampled 0.5, 1, 2, 4 h, LC-HRMS, mean ± SD
[2] = po 10 mg/kg, sampled 0.5, 1, 3, 6 h, LC-HRMS, mean ± SD
[3] = with 30 min NADPH preincubation

T2 sequence (P11712 whole entry): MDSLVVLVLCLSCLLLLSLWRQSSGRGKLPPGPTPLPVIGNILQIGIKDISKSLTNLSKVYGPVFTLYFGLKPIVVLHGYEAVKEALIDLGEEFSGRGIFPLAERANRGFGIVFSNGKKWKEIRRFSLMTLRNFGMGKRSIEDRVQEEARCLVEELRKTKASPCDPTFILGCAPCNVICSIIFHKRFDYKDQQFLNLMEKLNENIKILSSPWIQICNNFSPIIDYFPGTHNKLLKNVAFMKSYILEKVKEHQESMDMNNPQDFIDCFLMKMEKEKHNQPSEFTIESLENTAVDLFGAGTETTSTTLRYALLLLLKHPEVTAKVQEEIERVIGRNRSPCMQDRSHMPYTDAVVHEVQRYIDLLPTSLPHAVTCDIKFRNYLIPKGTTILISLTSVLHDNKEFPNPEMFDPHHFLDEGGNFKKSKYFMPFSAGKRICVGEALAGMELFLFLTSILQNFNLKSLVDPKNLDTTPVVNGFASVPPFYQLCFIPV
T3 sequence (P08684 whole entry): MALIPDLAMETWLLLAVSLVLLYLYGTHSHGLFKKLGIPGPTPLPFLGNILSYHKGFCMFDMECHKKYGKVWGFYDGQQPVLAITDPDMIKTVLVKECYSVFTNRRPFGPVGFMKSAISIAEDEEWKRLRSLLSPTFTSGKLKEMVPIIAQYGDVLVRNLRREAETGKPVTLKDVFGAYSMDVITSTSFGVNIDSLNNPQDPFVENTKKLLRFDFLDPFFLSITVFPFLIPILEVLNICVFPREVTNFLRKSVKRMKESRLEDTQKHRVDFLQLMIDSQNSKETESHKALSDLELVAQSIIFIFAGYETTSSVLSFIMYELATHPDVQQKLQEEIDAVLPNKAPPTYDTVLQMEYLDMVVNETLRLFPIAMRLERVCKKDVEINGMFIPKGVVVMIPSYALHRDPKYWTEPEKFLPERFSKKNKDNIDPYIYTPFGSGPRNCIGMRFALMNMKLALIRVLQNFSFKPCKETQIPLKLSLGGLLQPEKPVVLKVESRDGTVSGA
T1 sequence (P11509 whole entry): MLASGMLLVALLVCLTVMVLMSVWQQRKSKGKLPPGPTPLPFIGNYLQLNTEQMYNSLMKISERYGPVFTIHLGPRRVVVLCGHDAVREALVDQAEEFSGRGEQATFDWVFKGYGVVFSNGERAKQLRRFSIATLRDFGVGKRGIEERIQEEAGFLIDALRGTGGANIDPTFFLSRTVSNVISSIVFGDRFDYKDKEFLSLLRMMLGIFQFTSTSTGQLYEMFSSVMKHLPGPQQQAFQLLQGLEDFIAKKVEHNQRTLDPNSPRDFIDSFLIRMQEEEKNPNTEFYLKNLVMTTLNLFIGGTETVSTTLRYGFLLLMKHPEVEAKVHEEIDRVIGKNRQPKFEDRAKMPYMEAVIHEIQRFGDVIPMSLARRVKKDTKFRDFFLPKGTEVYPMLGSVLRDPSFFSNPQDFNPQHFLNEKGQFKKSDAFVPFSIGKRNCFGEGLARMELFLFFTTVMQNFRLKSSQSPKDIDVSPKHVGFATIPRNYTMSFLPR

With CC[C@H](C)[C@@H]1NC(=O)CNC(=O)[C@@H]2Cc3c([nH]c4cc(O)ccc34)[S@+]([O-])C[C@H](NC(=O)CNC1=O)C(=O)N[C@@H](CC(=O)O)C(=O)N1C[C@H](O)C[C@H]1C(=O)N[C@@H]([C@@H](C)[C@@H](O)CO)C(=O)N2 [β-amanitin] the “AUClast, brain” value (in vivo; iv 0.8 mg/kg, sampled 0.5, 1, 2, 4 h, LC-HRMS) was “-”, the “AUClast, heart” value (in vivo; [1]) was 13,397 ± 908 ng⋅min/g and the “AUClast, kidney” value (in vivo; [1]) was 142,023 ± 7510 ng⋅min/g. The “AUClast, liver” value (in vivo; [1]) was 25,780 ± 2440 ng⋅min/g, the “AUClast, lung” value (in vivo; [1]) was 35,970 ± 3070 ng⋅min/g and the “Tissue to plasma (AUC) ratio, heart” value (in vivo; iv 0.8 mg/kg) was 0.2. For the same compound, the “Tissue to plasma (AUC) ratio, liver” value (in vivo; iv 0.8 mg/kg) was 0.5, the “Tissue to plasma (AUC) ratio, lung” value (in vivo; iv 0.8 mg/kg) was 0.7 and the “Tissue to plasma (AUC) ratio, kidney” value (in vivo; iv 0.8 mg/kg, 0.8 mg/kg) was 2.6. The “Tissue to plasma (AUC) ratio, spleen” value (in vivo; iv 0.8 mg/kg, 0.8 mg/kg) was 2.5, the “AUClast, spleen” value (in vivo; [1]) was 137,855 ± 11,949 ng⋅min/g and the “AUClast, brain” value (in vivo; po 10 mg/kg, sampled 0.5, 1, 3, 6 h, LC-HRMS) was “-”. The “AUClast, heart” value (in vivo; [2]) was 12,563 ± 2696 ng⋅min/g, the “AUClast, intestine” value (in vivo; po 10 mg/kg, intestine homogenate, sampled 0.5, 1, 3, 6 h, LC-HRMS, mean ± SD) was 2,066,298 ± 492,689 ng⋅min/g and the “AUClast, kidney” value (in vivo; [2]) was 158,677 ± 84,620 ng⋅min/g. For the same compound, the “AUClast, liver” value (in vivo; [2]) was 12,665 ± 11,731 ng⋅min/g, the “AUClast, lung” value (in vivo; [2]) was 37,831 ± 11,434 ng⋅min/g and the “Tissue to plasma (AUC) ratio, heart” value (in vivo; po 10 mg/kg) was 0.5. The “Tissue to plasma (AUC) ratio, intestine” value (in vivo; po 10 mg/kg) was 87.3, the “Tissue to plasma (AUC) ratio, liver” value (in vivo; po 10 mg/kg) was 0.5 and the “Tissue to plasma (AUC) ratio, lung” value (in vivo; po 10 mg/kg) was 1.6. The “Tissue to plasma (AUC) ratio, spleen” value (in vivo; po 10 mg/kg) was 1.8, the “Tissue to plasma (AUC) ratio, stomach” value (in vivo; po 10 mg/kg) was 28.8 and the “AUClast, spleen” value (in vivo; [2]) was 42,409 ± 33,867 ng⋅min/g. The “AUClast, stomach” value (in vivo; po 10 mg/kg, stomach homogenate, sampled 0.5, 1, 3, 6 h, LC-HRMS, mean ± SD) was 680,749 ± 137,691 ng⋅min/g, the AUC(0-t) (in vivo; [1]) was 910 ng·h/mL and the AUC(0-t) (in vivo; [2]) was 394 ng·h/mL. It also gave a pIC50 (CYP2A6; [3]) of 4.10, a pIC50 (CYP2A6; without NADPH preincubation) of 4.03 and a pIC50 (CYP2C9; [3]) of under 4.00. The pIC50 (CYP2C9; without NADPH preincubation) was under 4.00, the pIC50 (CYP3A4; [3]) was under 4.00 and the pIC50 (CYP3A4; without NADPH preincubation) was under 4.00.
